Assay results published in patent US20230064983A1 (priority 2020, published 2023).
“And” between values parts separate entries of the source, which are not always exact repeats. Identical values can stand only once.

How the values were obtained:
[1] = molecular target: Ba/F3-EGFR-V769_D770insASV cells (Homo sapiens, UniProt P00533, DUP767-769, cells depend on it); experiment: Ba/F3 cell survival assay, EGFR V769_D770insASV; type: cell-based; details: EGFR Exon20 insertion mutations; Table 6; read-out: BA/F3 (ASV) IC50
[2] = molecular target: Ba/F3-EGFR-H773_V774insNPH cells (Homo sapiens, UniProt P00533, DUP771-773, cells depend on it); experiment: Ba/F3 cell survival assay, EGFR H773_V774insNPH; type: cell-based; details: EGFR Exon20 insertion mutations; Table 6; read-out: BA/F3 (EGFR H773_774insNPH) IC50
[3] = molecular target: T1, EGFR with insertion SVD between D770 and N771 (mutEGFR D770_N771insSVD) (Homo sapiens, UniProt P00533, DUP768-770); experiment: Exon20-Mutant-EGFR(D770_N771insSVD) kinase assay (TR-FRET); type: biochemical; details: 2 mM ATP, Table 2
T1 construct: amino acids R669 to A1210; made in house; host or cells: Sf9 insect cells (baculovirus)

PC9 cells = experiment: PC9 cell proliferation assay (EGFRex19del); type: cell-based; details: Homo sapiens, PC-9, 72 h, read-out: PC9 IC50
Experimental: Cellular Data Description (PC9 cells, EGFRex19del)
PC9 cells were purchased from Tokyo Medical College. 400 PC9 cells per well were seeded in growth medium (DMEM, 10% FCS) in a 384-well plate (CORNING #3571). Seed reference plate for time zero determination on the same day. All plates were incubated overnight at 37° C. After 24 hours, test compound were added in 7-step dilution using HP Compound printer and incubated at 37° C. for 72 h. After 3 days, 30 μL/well CTG solution (Promega Cell Titer Glo solution; catalog #G755B and G756B) were added to each well, incubated for 30 minutes and the plate were read on PheraStar. Proliferation is calculated after subtracting time zero luminescence values from day 4 values and comparing to untreated wells.
The IC50 values were determined using the four parameter fit.

Ba/F3-EGFR-WT cells = Ba/F3-EGFR-WT cells (Homo sapiens, UniProt P00533); experiment: Ba/F3 cell survival assay, wild type EGFR; type: cell-based; details: Cell Titer-Glo, 48 h, with 10 ng/mL EGF; Table 4; read-out: BA/F3 (wild type) IC50
Sequence of Ba/F3-EGFR-WT cells (P00533 whole entry, looked up, stated change not applied): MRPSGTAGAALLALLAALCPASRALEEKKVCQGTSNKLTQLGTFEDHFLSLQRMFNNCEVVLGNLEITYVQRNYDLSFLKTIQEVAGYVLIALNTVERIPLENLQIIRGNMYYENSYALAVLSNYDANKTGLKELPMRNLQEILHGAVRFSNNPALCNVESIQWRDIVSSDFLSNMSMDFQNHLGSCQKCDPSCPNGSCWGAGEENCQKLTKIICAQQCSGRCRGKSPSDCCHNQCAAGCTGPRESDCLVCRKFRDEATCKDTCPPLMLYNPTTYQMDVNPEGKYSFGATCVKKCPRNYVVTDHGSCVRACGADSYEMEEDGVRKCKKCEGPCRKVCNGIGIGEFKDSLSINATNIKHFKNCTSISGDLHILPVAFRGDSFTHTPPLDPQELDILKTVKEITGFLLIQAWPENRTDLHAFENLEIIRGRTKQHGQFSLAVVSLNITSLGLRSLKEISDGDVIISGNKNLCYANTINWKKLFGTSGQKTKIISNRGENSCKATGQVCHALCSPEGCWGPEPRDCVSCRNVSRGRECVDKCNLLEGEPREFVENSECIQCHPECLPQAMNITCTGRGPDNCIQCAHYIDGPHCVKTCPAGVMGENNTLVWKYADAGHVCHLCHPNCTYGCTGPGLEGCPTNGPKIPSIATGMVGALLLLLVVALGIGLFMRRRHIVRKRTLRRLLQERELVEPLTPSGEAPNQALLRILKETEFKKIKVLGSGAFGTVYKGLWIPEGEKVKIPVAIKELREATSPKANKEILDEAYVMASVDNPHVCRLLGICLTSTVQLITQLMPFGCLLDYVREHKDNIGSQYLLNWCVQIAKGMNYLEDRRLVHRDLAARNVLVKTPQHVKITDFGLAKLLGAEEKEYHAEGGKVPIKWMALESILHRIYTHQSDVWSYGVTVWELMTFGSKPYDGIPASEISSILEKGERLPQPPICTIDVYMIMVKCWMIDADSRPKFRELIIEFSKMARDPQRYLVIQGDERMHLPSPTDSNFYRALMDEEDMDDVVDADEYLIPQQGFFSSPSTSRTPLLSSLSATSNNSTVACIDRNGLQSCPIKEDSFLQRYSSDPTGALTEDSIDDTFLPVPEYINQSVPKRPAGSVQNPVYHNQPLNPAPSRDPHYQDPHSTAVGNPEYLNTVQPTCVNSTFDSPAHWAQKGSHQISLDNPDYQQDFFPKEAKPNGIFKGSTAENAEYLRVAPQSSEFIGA

[4] = molecular target: Ba/F3-ERBB2-A775_G776insYVMA cells (Homo sapiens, UniProt P04626, DUP772-775, cells depend on it); experiment: Ba/F3 cell survival assay, ERBB2 A775_G776insYVMA; type: cell-based; details: Table 9; read-out: BA/F3 (ERBB2 A775_G776 insYVMA) IC50
Ba/F3-EGFR L861Q cells = Ba/F3-EGFR L861Q cells (Homo sapiens, UniProt P00533, L861Q, cells depend on it); experiment: Ba/F3 cell survival assay, EGFR L861Q; type: cell-based; details: classical activating and rare EGFR mutations; Table 7; read-out: BA/F3 (EGFR L861Q) IC50
[5] = molecular target: Ba/F3-EGFR-D770_N771insSVD C797S cells (Homo sapiens, UniProt P00533, DUP768-770/C797S, cells depend on it); experiment: Ba/F3 cell survival assay, EGFR D770_N771insSVD C797S; type: cell-based; details: aquired resistance space; Table 8; read-out: BA/F3 (EGFR 0770_N771 insSVD C797S) IC50
Sequence of Ba/F3-EGFR-D770_N771insSVD C797S cells (P00533 with tags, fused parts or gaps DUP768-770/C797S): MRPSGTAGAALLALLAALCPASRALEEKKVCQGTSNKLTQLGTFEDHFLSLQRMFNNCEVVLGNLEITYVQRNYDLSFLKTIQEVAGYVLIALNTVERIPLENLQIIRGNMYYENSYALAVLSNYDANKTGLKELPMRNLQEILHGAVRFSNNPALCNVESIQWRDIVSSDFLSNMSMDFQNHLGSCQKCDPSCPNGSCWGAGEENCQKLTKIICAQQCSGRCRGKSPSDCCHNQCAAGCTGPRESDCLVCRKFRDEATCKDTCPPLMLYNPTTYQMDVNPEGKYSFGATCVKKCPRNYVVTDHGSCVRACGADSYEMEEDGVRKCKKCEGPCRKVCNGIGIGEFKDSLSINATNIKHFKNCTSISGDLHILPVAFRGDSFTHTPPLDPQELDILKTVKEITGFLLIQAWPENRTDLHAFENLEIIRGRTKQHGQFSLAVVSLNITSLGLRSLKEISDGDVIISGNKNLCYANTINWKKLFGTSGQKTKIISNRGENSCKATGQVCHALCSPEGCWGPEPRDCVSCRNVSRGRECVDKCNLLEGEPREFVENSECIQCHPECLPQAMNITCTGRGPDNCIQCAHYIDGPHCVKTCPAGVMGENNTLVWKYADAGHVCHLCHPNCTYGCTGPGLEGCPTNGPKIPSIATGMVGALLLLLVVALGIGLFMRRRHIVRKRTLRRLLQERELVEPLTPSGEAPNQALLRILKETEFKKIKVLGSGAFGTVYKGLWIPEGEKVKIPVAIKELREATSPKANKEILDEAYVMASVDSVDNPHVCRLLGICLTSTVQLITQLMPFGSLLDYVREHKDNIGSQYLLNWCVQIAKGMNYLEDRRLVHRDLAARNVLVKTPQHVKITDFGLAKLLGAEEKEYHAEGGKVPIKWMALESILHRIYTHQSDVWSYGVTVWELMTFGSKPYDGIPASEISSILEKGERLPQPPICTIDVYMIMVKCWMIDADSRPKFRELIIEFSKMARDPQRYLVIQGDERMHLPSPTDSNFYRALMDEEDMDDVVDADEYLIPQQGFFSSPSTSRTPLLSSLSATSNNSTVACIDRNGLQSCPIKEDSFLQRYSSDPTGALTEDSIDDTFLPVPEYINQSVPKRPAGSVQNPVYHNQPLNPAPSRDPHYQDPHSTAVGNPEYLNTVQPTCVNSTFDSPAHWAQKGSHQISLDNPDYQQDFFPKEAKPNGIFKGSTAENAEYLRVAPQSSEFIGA

[6] = molecular target: Ba/F3-EGFR-D770_N771insNPG cells (Homo sapiens, UniProt P00533, INS772GNP, cells depend on it); experiment: Ba/F3 cell survival assay, EGFR D770_N771insNPG; type: cell-based; details: EGFR Exon20 insertion mutations; Table 6; read-out: BA/F3 (insNPG) IC50
Sequence of Ba/F3-EGFR-D770_N771insNPG cells (P00533 with tags, fused parts or gaps INS772GNP): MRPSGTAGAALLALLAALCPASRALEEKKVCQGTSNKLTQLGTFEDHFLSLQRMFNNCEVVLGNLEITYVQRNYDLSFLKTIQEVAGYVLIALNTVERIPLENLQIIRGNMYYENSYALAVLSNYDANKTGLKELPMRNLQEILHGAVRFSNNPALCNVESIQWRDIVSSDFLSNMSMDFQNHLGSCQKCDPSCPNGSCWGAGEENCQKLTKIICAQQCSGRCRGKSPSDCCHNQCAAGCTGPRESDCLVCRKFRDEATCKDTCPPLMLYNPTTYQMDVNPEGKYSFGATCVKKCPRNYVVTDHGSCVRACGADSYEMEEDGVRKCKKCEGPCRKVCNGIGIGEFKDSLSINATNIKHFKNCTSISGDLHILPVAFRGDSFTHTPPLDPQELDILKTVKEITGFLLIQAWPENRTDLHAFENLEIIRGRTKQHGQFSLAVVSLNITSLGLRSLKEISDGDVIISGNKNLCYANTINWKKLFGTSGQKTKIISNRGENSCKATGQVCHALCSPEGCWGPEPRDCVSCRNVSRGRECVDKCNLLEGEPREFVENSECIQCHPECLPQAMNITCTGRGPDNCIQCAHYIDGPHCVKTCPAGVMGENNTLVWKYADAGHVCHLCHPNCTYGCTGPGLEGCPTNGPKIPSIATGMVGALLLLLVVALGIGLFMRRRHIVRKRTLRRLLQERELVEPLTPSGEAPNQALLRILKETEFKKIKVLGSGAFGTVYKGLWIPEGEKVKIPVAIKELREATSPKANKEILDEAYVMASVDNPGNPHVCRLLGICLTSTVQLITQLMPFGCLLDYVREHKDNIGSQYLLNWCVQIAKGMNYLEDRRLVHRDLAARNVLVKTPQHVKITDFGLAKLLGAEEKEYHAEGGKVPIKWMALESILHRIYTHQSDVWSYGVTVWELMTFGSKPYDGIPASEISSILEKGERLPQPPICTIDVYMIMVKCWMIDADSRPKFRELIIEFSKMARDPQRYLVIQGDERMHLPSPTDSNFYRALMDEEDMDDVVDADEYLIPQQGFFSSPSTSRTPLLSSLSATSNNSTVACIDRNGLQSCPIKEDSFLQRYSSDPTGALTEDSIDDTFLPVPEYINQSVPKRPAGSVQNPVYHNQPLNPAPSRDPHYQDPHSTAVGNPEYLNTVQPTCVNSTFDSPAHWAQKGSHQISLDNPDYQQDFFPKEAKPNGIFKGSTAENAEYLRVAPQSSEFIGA

Bub1 = molecular target: T2, Bub1 (Homo sapiens, UniProt O43683); experiment: Bub1 high ATP kinase assay (TR-FRET); type: biochemical; details: Bub1 high ATP (2 mM) IC50, TR-FRET, 2 mM ATP; Table 3
T2 construct: catalytic domain of human Bub1 (amino acids 704-1085); His6 (N); made in house; host or cells: insect cells (Hi5)
Outline: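 Enzyme was His6-tagged human Bub1 catalytic domain (aa 704-1085) from Hi5 insect cells, typically about 200 ng/ml, with a biotinylated peptide substrate at high ATP. Reaction ran 60 min at 22 °C, then was stopped with EDTA. Phosphopeptide was detected by TR-FRET (anti-phosphoserine antibody, Eu-labelled anti-mouse IgG, streptavidin-XL665), read as the 665/620 nm emission ratio.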

[7] = molecular target: Ba/F3-EGFR-D770_N771insSVD cells (Homo sapiens, UniProt P00533, DUP768-770, cells depend on it); experiment: Ba/F3 cell survival assay, EGFR D770_N771insSVD; type: cell-based; details: Cell Titer-Glo, 48 h, without IL-3; Table 4; read-out: BA/F3 (insSVD) IC50
Sequence of Ba/F3-EGFR-D770_N771insSVD cells (P00533 with tags, fused parts or gaps DUP768-770): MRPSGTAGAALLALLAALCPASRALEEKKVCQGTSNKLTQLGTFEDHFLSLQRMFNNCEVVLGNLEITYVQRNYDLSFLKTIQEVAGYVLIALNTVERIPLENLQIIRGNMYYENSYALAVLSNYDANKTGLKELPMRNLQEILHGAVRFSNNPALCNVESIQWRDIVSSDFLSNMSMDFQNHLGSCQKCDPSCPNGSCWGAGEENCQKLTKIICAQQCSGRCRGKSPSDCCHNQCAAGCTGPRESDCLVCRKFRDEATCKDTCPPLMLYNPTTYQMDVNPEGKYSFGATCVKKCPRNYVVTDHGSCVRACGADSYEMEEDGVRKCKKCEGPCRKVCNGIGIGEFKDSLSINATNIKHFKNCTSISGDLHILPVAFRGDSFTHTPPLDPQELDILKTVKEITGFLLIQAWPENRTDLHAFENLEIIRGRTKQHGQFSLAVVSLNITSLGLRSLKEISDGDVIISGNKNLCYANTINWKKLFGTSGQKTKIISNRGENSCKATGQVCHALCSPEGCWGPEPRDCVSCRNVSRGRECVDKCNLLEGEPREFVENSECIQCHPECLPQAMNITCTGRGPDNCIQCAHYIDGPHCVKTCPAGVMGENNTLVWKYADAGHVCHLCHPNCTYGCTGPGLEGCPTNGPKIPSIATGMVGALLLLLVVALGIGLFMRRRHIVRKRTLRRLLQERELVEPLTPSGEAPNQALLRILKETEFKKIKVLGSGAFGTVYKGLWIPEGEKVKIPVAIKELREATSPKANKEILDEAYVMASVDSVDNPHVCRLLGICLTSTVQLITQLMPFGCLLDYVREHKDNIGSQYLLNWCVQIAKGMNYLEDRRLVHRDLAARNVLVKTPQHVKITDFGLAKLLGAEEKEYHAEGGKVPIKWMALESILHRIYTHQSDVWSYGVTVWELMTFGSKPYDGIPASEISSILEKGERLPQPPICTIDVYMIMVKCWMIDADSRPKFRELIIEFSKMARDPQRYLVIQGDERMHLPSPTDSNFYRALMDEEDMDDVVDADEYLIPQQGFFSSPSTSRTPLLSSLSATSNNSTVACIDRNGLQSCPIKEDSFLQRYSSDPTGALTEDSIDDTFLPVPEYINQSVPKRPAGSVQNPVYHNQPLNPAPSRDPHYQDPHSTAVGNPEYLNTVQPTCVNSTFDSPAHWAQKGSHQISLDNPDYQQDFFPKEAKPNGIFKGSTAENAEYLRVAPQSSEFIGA

[8] = molecular target: Ba/F3-EGFR-N771_P772insH cells (Homo sapiens, UniProt P00533, INS771H, cells depend on it); experiment: Ba/F3 cell survival assay, EGFR N771_P772insH; type: cell-based; details: EGFR Exon20 insertion mutations; Table 6; read-out: BA/F3 (EGFR N771_P772insH) IC50

| mutEGFR (D770_N771insSVD) kinase assay IC50 [3] | IC50 (PC9 cells) | IC50 (Bub1) | SMILES | GI50 [1] | GI50 [2] | GI50 (Ba/F3-EGFR-WT cells) | GI50 [4] | GI50 (Ba/F3-EGFR L861Q cells) | GI50 [5] | GI50 [6] | GI50 [7] | GI50 [8] |
| --- | --- | --- | --- | --- | --- | --- | --- | --- | --- | --- | --- | --- |
| 0.201 nM | 6.46 nM | 761 nM | COc1c(Cl)cccc1Nc1c(-c2ccncc2OC[C@@H]2CCCO2)[nH]c2c1C(=O)NC1(CC1)C2 [Example 113, 3′-(3-chloro-2-methoxyanilino)-2′-(3-{[(2S)-oxolan-2-yl]methoxy}pyridin-4-yl)-1′,7′-dihydrospiro[cyclopropane-1,6′-pyrrolo[3,2-c]pyridin]-4′(5′H)-one] | 26 nM | 116 nM | 849 nM | 22.2 nM | 45 nM | 71.4 nM | 24.9 nM | 23.7 nM | 14.3 nM |
| 0.252 nM | 4.09 nM | 10100 nM | Cc1c(Cl)cccc1Nc1c(-c2ccncc2OCC2COCCO2)[nH]c2c1C(=O)NCC2C (single isomer, unassigned) [Example 67, 3-(3-chloro-2-methyl-anilino)-2-[3-(1,4-dioxan-2-ylmethoxy)-4-pyridyl]-7-methyl-1,5,6,7-tetrahydropyrrolo[3,2-c]pyridin-4-one] | 40.3 nM | 117 nM | 1150 nM | 29.2 nM | 53.6 nM | 40.6 nM | 13.5 nM | 27.1 nM | 18.3 nM |
| 0.175 nM | 3.43 nM | > 20000 nM | COc1c(Cl)cccc1Nc1c(-c2ccncc2OCC2COCCO2)[nH]c2c1C(=O)NCC2C (single isomer, unassigned) [Example 34, 3-(3-chloro-2-methoxy-anilino)-2-[3-(1,4-dioxan-2-ylmethoxy)-4-pyridyl]-7-methyl-1,5,6,7-tetrahydropyrrolo[3,2-c]pyridin-4-one] | 30.2 nM | 165 nM | 424 nM | 33.1 nM | 31.8 nM | 35.5 nM | 16.9 nM | 20.2 nM | 14.3 nM |

Further lines, the compound ahead of its results:

| SMILES | mutEGFR (D770_N771insSVD) kinase assay IC50 [3] | IC50 (PC9 cells) | IC50 (Bub1) | GI50 [1] | GI50 [2] | GI50 (Ba/F3-EGFR-WT cells) | GI50 [4] | GI50 (Ba/F3-EGFR L861Q cells) | GI50 [5] | GI50 [6] | GI50 [7] | GI50 [8] |
| --- | --- | --- | --- | --- | --- | --- | --- | --- | --- | --- | --- | --- |
| COc1c(Cl)cccc1Nc1c(-c2ccncc2OCCC(C)OC)[nH]c2c1C(=O)N[C@H](C)C2 (single isomer, unassigned) [Example 121] | 0.188 nM | 1.84 nM | 1830 nM | 10.1 nM | 49.2 nM | 267 nM | 12.8 nM | 11.2 nM | 21.7 nM | 12.8 nM | 8.81 nM | 4.49 nM |
| COCC(C)Oc1cnccc1-c1[nH]c2c(c1Nc1cccc(Cl)c1OC)C(=O)N[C@@H]1CCC[C@H]21 (single isomer, unassigned) [Example 51] | 0.305 nM | 1.74 nM | 7090 nM | 12.8 nM | 30.8 nM | 412 nM | 15.2 nM | 14.9 nM | 19.5 nM | 11.4 nM | 13.6 nM | 6.89 nM |
| COc1c(Cl)cccc1Nc1c(-c2ccncc2OCCC2CCCCO2)[nH]c2c1C(=O)N[C@H](C)C2 (single isomer, unassigned) [Example 87] | 0.535 nM | 1.82 nM | 19100 nM and > 20000 nM | 13.2 nM | 138 nM | 421 nM | 16.2 nM | 33.4 nM | 22.1 nM | 15 nM | 15 nM | 21.6 nM |
